Assay results taken from ChEMBL document CHEMBL3352326, “Synthesis of 2,3-di- and 2,2,3-trisubstituted-3-methoxycarbonyl-γ-butyrolactones as potent antitumor agents” (Eur J Med Chem, 2015).
The source made the active and inactive calls. No cut-off for these calls is given here.

Experiments:
HL-60 [1] = assay: Induction of cell cycle arrest in human HL60 cells assessed as accumulation at G0/G1 phase at 2 uM after 48 hrs by propidium iodide staining based flow cytometry (reference value: 42.9%); type: functional
HL-60 [2] = assay: Induction of apoptosis in human HL60 cells assessed as late apoptosis cells level at 5 uM annexin V-PE and 7-AAD staining based by flow cytometry (reference value: 0.4%); type: functional
[3] = Growth inhibition of human HCT116 cells at 10 uM after 72 hrs by MTS assay; type: functional; conditions: HCT-116, 72 h, read-out: GI
HL-60 [4] = assay: Induction of cell cycle arrest in human HL60 cells assessed as accumulation at S phase at 2 uM after 48 hrs by propidium iodide staining based flow cytometry (reference value: 45%); type: functional
HL-60 [5] = assay: Induction of apoptosis in human HL60 cells assessed as dead cells level at 10 uM annexin V-PE and 7-AAD staining based by flow cytometry (reference value: 0.4%); type: functional
HL-60 [6] = assay: Induction of apoptosis in human HL60 cells assessed as early apoptotic cells level at 10 uM annexin V-PE and 7-AAD staining based by flow cytometry (reference value: 18.5%); type: functional
HL-60 [7] = assay: Induction of cell cycle arrest in human HL60 cells assessed as accumulation at G2/M phase at 10 uM after 48 hrs by propidium iodide staining based flow cytometry (reference value: 11.6%); type: functional
HL-60 [8] = assay: Induction of cell cycle arrest in human HL60 cells assessed as accumulation at G2/M phase at 5 uM after 48 hrs by propidium iodide staining based flow cytometry (reference value: 11.6%); type: functional
[9] = Growth inhibition of human PC3 cells at 10 uM after 72 hrs by MTS assay; type: functional; conditions: PC-3, 72 h, read-out: GI
SK-OV-3 = assay: Growth inhibition of human SKOV3 cells at 10 uM after 72 hrs by MTS assay; type: functional; conditions: SK-OV-3, 72 h, read-out: GI
KB = assay: Growth inhibition of human KB cells at 10 uM after 72 hrs by MTS assay; type: functional; conditions: read-out: GI
HL-60 [10] = assay: Induction of apoptosis in human HL60 cells assessed as intact cells level at 2 uM annexin V-PE and 7-AAD staining based by flow cytometry (reference value: 80.7%); type: functional
HL-60 [11] = assay: Induction of cell cycle arrest in human HL60 cells assessed as accumulation at G0/G1 phase at 10 uM after 48 hrs by propidium iodide staining based flow cytometry (reference value: 42.9%); type: functional
HL-60 [12] = assay: Induction of apoptosis in human HL60 cells assessed as dead cells level at 2 uM annexin V-PE and 7-AAD staining based by flow cytometry (reference value: 0.4%); type: functional
HL-60 [13] = assay: Induction of cell cycle arrest in human HL60 cells assessed as accumulation at subG1 phase at 5 uM after 48 hrs by propidium iodide staining based flow cytometry (reference value: 0.5%); type: functional
HL-60 [14] = assay: Induction of cell cycle arrest in human HL60 cells assessed as accumulation at G0/G1 phase at 5 uM after 48 hrs by propidium iodide staining based flow cytometry (reference value: 42.9%); type: functional
HL-60 [15] = assay: Induction of apoptosis in human HL60 cells assessed as intact cells level at 5 uM annexin V-PE and 7-AAD staining based by flow cytometry (reference value: 80.7%); type: functional
HL-60 [16] = assay: Induction of apoptosis in human HL60 cells assessed as caspase-3 activation at 5 uM after 24 to 48 hrs by DEVD-AMC substrate based fluorescence assay; type: functional, cell-based
HL-60 [17] = assay: Induction of apoptosis in human HL60 cells assessed as late apoptosis cells level at 2 uM annexin V-PE and 7-AAD staining based by flow cytometry (reference value: 0.4%); type: functional
HL-60 [18] = assay: Induction of apoptosis in human HL60 cells assessed as intact cells level at 10 uM annexin V-PE and 7-AAD staining based by flow cytometry (reference value: 80.7%); type: functional
HL-60 [19] = assay: Induction of necrosis in intact human HL60 cells assessed as cytosolic LDH release at 2 to 10 uM; type: functional, cell-based
HL-60 [20] = assay: Induction of cell cycle arrest in human HL60 cells assessed as accumulation at subG1 phase at 2 uM after 48 hrs by propidium iodide staining based flow cytometry (reference value: 0.5%); type: functional
HL-60 [21] = assay: Induction of cell cycle arrest in human HL60 cells assessed as accumulation at S phase at 5 uM after 48 hrs by propidium iodide staining based flow cytometry (reference value: 45%); type: functional
HL-60 [22] = assay: Induction of apoptosis in human HL60 cells assessed as early apoptotic cells level at 2 uM annexin V-PE and 7-AAD staining based by flow cytometry (reference value: 18.5%); type: functional
HL-60 [23] = assay: Induction of cell cycle arrest in human HL60 cells assessed as accumulation at S phase at 10 uM after 48 hrs by propidium iodide staining based flow cytometry (reference value: 45%); type: functional
HL-60 [24] = assay: Induction of cell cycle arrest in human HL60 cells assessed as accumulation at subG1 phase at 10 uM after 48 hrs by propidium iodide staining based flow cytometry (reference value: 0.5%); type: functional
HL-60 [25] = assay: Induction of apoptosis in human HL60 cells assessed as dead cells level at 5 uM annexin V-PE and 7-AAD staining based by flow cytometry (reference value: 0.4%); type: functional
[26] = Growth inhibition of human HL60 cells at 10 uM after 72 hrs by MTS assay; type: functional; conditions: HL-60, 72 h, read-out: GI
HL-60 [27] = assay: Induction of apoptosis in human HL60 cells assessed as early apoptotic cells level at 5 uM annexin V-PE and 7-AAD staining based by flow cytometry (reference value: 18.5%); type: functional
[28] = Growth inhibition of drug resistant human HL60 cells at 10 uM after 72 hrs by MTS assay; type: functional; conditions: HL-60, 72 h, read-out: GI
HL-60 [29] = assay: Induction of cell cycle arrest in human HL60 cells assessed as accumulation at G2/M phase at 2 uM after 48 hrs by propidium iodide staining based flow cytometry (reference value: 11.6%); type: functional
HL-60 [30] = assay: Induction of apoptosis in human HL60 cells assessed as late apoptosis cells level at 10 uM annexin V-PE and 7-AAD staining based by flow cytometry (reference value: 0.4%); type: functional
[31] = Growth inhibition of human MCF7/R cells at 10 uM after 72 hrs by MTS assay; type: functional; conditions: MCF7R, read-out: GI
MCF7 = assay: Growth inhibition of human MCF7 cells at 10 uM after 72 hrs by MTS assay; type: functional; conditions: MCF7, 72 h, read-out: GI
HL-60 [32] = assay: Induction of necrosis in human HL60 cells assessed as total LDH activity at 2 to 10 uM; type: functional, cell-based
HL-60 [33] = assay: Induction of necrosis in intact human HL60 cells assessed as cytosolic LDH release at 50 uM; type: functional, cell-based
HL-60 [34] = assay: Induction of cell cycle arrest in human HL60 cells assessed as accumulation at subG1 phase at 50 nM after 48 hrs by propidium iodide staining based flow cytometry (reference value: 0.5%); type: functional
HL-60 [35] = assay: Induction of apoptosis in human HL60 cells assessed as intact cells level at 100 nM annexin V-PE and 7-AAD staining based by flow cytometry (reference value: 80.7%); type: functional
HL-60 [36] = assay: Induction of cell cycle arrest in human HL60 cells assessed as accumulation at G0/G1 phase at 50 nM after 48 hrs by propidium iodide staining based flow cytometry (reference value: 42.9%); type: functional
HL-60 [37] = assay: Induction of necrosis in intact human HL60 cells assessed as cytosolic LDH release at 1 uM; type: functional, cell-based
HL-60 [38] = assay: Induction of apoptosis in human HL60 cells assessed as late apoptosis cells level at 100 nM annexin V-PE and 7-AAD staining based by flow cytometry (reference value: 0.4%); type: functional
HL-60 [39] = assay: Induction of cell cycle arrest in human HL60 cells assessed as accumulation at S phase at 50 nM after 48 hrs by propidium iodide staining based flow cytometry (reference value: 45%); type: functional
HL-60 [40] = assay: Induction of apoptosis in human HL60 cells assessed as dead cells level at 100 nM annexin V-PE and 7-AAD staining based by flow cytometry (reference value: 0.4%); type: functional
HL-60 [41] = assay: Induction of apoptosis in human HL60 cells assessed as early apoptotic cells level at 100 nM annexin V-PE and 7-AAD staining based by flow cytometry (reference value: 18.5%); type: functional
HL-60 [42] = assay: Induction of cell cycle arrest in human HL60 cells assessed as accumulation at G2/M phase at 50 nM after 48 hrs by propidium iodide staining based flow cytometry (reference value: 11.6%); type: functional

`COC(=O)C1(Cc2ccc(OC)cc2)CC(=O)OC1(C)c1ccccc1` (stereo not given) gave an Activity (HL-60 [1]) of 36.3%, an Activity (HL-60 [2]) of 2.2% and an inhibition of growth at 10 µM [3] of 61%. The Activity (HL-60 [4]) was 24%, the Activity (HL-60 [5]) was 1.65% and the Activity (HL-60 [6]) was 53.35%. For the same compound, the Activity (HL-60 [7]) was 13.1%, the Activity (HL-60 [8]) was 12.2% and the inhibition of growth at 10 µM [9] was 68%. The inhibition of growth at 10 µM (SK-OV-3) was 76%, the inhibition of growth at 10 µM (KB) was 95% and the Activity (HL-60 [10]) was 61.45%. For the same compound, the Activity (HL-60 [11]) was 19.5%, the Activity (HL-60 [12]) was 0.35% and the Activity (HL-60 [13]) was 38.9%. For the same compound, the Activity (HL-60 [14]) was 23.4%, the Activity (HL-60 [15]) was 50.55% and the Activity (HL-60 [16]) was “Active”. The Activity (HL-60 [17]) was 0.65%, the Activity (HL-60 [18]) was 40.7% and the Activity (HL-60 [19]) was “inactive”. It also gave an Activity (HL-60 [20]) of 14.1%, an Activity (HL-60 [21]) of 25.6% and an Activity (HL-60 [22]) of 37.65%. For the same compound, the Activity (HL-60 [23]) was 29.7%, the Activity (HL-60 [24]) was 37.7% and the Activity (HL-60 [25]) was 0.9%. The inhibition of growth at 10 µM [26] was 82%, the Activity (HL-60 [27]) was 46.4% and the inhibition of growth at 10 µM [28] was 92%. The Activity (HL-60 [29]) was 25.6%, the Activity (HL-60 [30]) was 4.25% and the inhibition of growth at 10 µM [31] was 82%. For the same compound, the inhibition of growth at 10 µM (MCF7) was 56% and the Activity (HL-60 [32]) was “Active”.

In the case of `CC1=CC(=O)c2ccccc2C1=O`, the Activity (HL-60 [33]) is reported as “Active”.

Compound `COc1cccc2c1C(=O)c1c(O)c3c(c(O)c1C2=O)C[C@@](O)(C(=O)CO)C[C@@H]3O[C@H]1C[C@H](N)[C@H](O)[C@H](C)O1` [DOXORUBICIN] has an Activity (HL-60 [34]) of 4.5%, an Activity (HL-60 [35]) of 14.7% and an Activity (HL-60 [36]) of 23%. For the same compound, the Activity (HL-60 [37]) was “inactive”, the Activity (HL-60 [38]) was 3.15% and the Activity (HL-60 [39]) was 32.5%. The Activity (HL-60 [40]) was 0.5%, the Activity (HL-60 [41]) was 81.65% and the Activity (HL-60 [42]) was 40%.

`COC(=O)[C@@]1(Cc2ccc(OC)cc2)CC(=O)O[C@]1(C)c1ccccc1` showed an inhibition of growth at 10 µM [3] of 56%, an inhibition of growth at 10 µM (KB) of 98% and an inhibition of growth at 10 µM [26] of 68%. The inhibition of growth at 10 µM (MCF7) was 59%.

Compound `COC(=O)C1(Cc2ccccc2)CC(=O)OC1(C)C` (stereo not given) has an inhibition of growth at 10 µM [3] of 15%, an inhibition of growth at 10 µM (KB) of 0% and an inhibition of growth at 10 µM [26] of 9%. It also gave an inhibition of growth at 10 µM (MCF7) of 7%.

Work on `COC(=O)C1(Cc2ccccc2OC)CC(=O)OC1(C)c1ccccc1` (stereo not given) yielded an inhibition of growth at 10 µM [3] of 13%, an inhibition of growth at 10 µM (KB) of 9% and an inhibition of growth at 10 µM [26] of 34%. The inhibition of growth at 10 µM (MCF7) was 10%.

With `COC(=O)C1(Cc2ccccc2OC)CC(=O)OC1c1cc(OC)c(OC)c(OC)c1` (stereo not given) the inhibition of growth at 10 µM [3] was 19%, the inhibition of growth at 10 µM (KB) was 6% and the inhibition of growth at 10 µM [26] was 22%. The inhibition of growth at 10 µM (MCF7) was 12%.

`COC(=O)C1(Cc2ccc(OC)cc2)CC(=O)OC1c1cccc(C(F)(F)F)c1` (stereo not given) gave an inhibition of growth at 10 µM [3] of 10%, an inhibition of growth at 10 µM (KB) of 25% and an inhibition of growth at 10 µM [26] of 14%. The inhibition of growth at 10 µM (MCF7) was 15%.
